Where “and” joins values, the source holds several entries; their conditions need not be identical. Identical values can stand only once.
Legend:
Coturnix japonica = details: acute; oral; mortality
Colinus virginianus = details: oral; for NOEL: short-term
Daphnia magna = details: chronic/long-term; duration: 21 days; reproduction
Tagia sp. = details: chronic/long-term; duration: 8 weeks
Apis mellifera = details: acute, mortality

Row | SMILES | LD50 (Coturnix japonica) [mg/kg] | NOEL (Anas platyrhynchos; reproductive) [mg/kg-day] | NOEL (Anas platyrhynchos; short-term, oral, feed) | LD50 (Colinus virginianus; acute, mortality) [mg/kg] | NOEL (Colinus virginianus; diet) | NOEC (Daphnia magna) [mg/L] | NOEC (Tagia sp.) [mg/kg] | LD50 (Apis mellifera; dermal) [µg/piece] | LD50 (Apis mellifera; oral, unspecified) [µg/piece] | LC50 (Colinus virginianus; acute, diet, mortality) [mg/kg-day]
1 | O.O.[Cu] [Copper hydroxide (Cu(OH)2)] | 556 | 7.05 | 216 mg/kg-day and 191 mg/kg-day | 223 | 124 mg/kg-day and 132 mg/kg-day |  |  |  |  | 
2 | [Cl-].[Cu+2].[Cu+2].[OH-].[OH-].[OH-] [Dicopper chloride trihydroxide] |  |  |  | 511 |  | 0.0076 | < 15 | 44.3 | 12.1 | 333
3 | [Cu+].[Cu+].[O-2] [Cuprous oxide] | 1180 |  |  |  | 31.9 mg/kg-day |  |  |  |  | 

Source: EPA's ToxValDB 9.5 (doi:10.2903/j.efsa.2008.187r)
